Experimental findings from ChEMBL document CHEMBL5052856, “Inhibitors of apol1 and methods of using same” (2021) are described below.

This assay has as its target Apolipoprotein L1 (Homo sapiens, UniProt O14791). Kind of assay: Inhibition of APOL1 G1 variant in human HEK293-T-REx cells measured by Thallium assay. Type of assay: cell-based.

Regarding `O=C(NC1(CO)CC(F)(F)C1)C1CC(Cc2c(-c3ccc(F)cc3)[nH]c3c(F)cc(F)cc23)C1` (stereo not given), the IC50 was > 1000 nM.
As for `CC(O)(CO)CNC(=O)C1CC(Cc2c(-c3ccc(F)cc3)[nH]c3c(F)cc(F)cc23)C1` (stereo not given), the IC50 is > 1000 nM.
With `O=C(NCCO)O[C@H]1C[C@H](c2c(-c3ccc(F)cc3)[nH]c3c(F)cc(F)cc32)C1` the figure was 0.25 nM; with `O=C(N[C@H]1CCOC1=O)C1CC(Cc2c(-c3ccc(F)cc3)[nH]c3c(F)cc(F)cc23)C1` (stereo not given in full), > 1000 nM; with `CC(NC(=O)C1CC(Cc2c(-c3ccc(F)cc3)[nH]c3c(F)cc(F)cc23)C1)c1ccn(C)n1` (stereo not given), > 1000 nM.
For the molecule `Cc1nn(C)cc1CNC(=O)C1CC(Cc2c(-c3ccc(F)cc3)[nH]c3c(F)cc(F)cc23)C1` (stereo not given), the IC50 was > 1000 nM.
Regarding `Cc1noc(CNC(=O)C2CC(Cc3c(-c4ccc(F)cc4)[nH]c4c(F)cc(F)cc34)C2)n1` (stereo not given), the IC50 was > 1000 nM.
With `O=C(NC1CC1)O[C@H]1C[C@H](c2c(-c3ccc(F)cc3)[nH]c3c(F)cc(F)cc32)C1` the figure was 0.25 nM; with `O=C(Nc1ccc[nH]c1=O)C1CC(Cc2c(-c3ccc(F)cc3)[nH]c3c(F)cc(F)cc23)C1` (stereo not given), > 1000 nM.
The molecule `O=C(NCc1cnco1)O[C@H]1C[C@H](c2c(-c3ccc(F)cc3)[nH]c3c(F)cc(F)cc32)C1` came in with an IC50 of 0.25 nM.
As for `O=C1CC(CNC(=O)C2CC(Cc3c(-c4ccc(F)cc4)[nH]c4c(F)cc(F)cc34)C2)CN1` (stereo not given), the IC50 is > 1000 nM.
As to `CC(CO)NC(=O)O[C@H]1C[C@H](c2c(-c3ccc(F)cc3)[nH]c3c(F)cc(F)cc32)C1` (stereo not given in full), the IC50 came to 0.25 nM. That is a sub-nanomolar value.
Consider `Cc1cc(CNC(=O)C2CC(Cc3c(-c4ccc(F)cc4)[nH]c4c(F)cc(F)cc34)C2)nn1C` (stereo not given), for which the half-maximal inhibitory concentration (IC50) was > 1000 nM.
With `O=C(NCC1(O)CCC1)C1CC(Cc2c(-c3ccc(F)cc3)[nH]c3c(F)cc(F)cc23)C1` (stereo not given) the figure was > 1000 nM; with `O=C(NCC(F)F)O[C@H]1C[C@H](c2c(-c3ccc(F)cc3)[nH]c3c(F)cc(F)cc32)C1`, 0.25 nM; with `Cn1cc(CNC(=O)C2CC(Cc3c(-c4ccc(F)cc4)[nH]c4c(F)cc(F)cc34)C2)cn1` (stereo not given), > 1000 nM.
As to `CC(C)(O)CCNC(=O)C1CC(Cc2c(-c3ccc(F)cc3)[nH]c3c(F)cc(F)cc23)C1` (stereo not given), the IC50 is > 1000 nM.
Consider `CC(=O)NCCNC(=O)C1CC(Cc2c(-c3ccc(F)cc3)[nH]c3c(F)cc(F)cc23)C1` (stereo not given), for which the IC50 is > 1000 nM.
In the case of `O=C(NCc1ccoc1)C1CC(Cc2c(-c3ccc(F)cc3)[nH]c3c(F)cc(F)cc23)C1` (stereo not given), the IC50 was > 1000 nM.
For the molecule `COC1(CNC(=O)C2CC(Cc3c(-c4ccc(F)cc4)[nH]c4c(F)cc(F)cc34)C2)CCOC1` (stereo not given), the IC50 was > 1000 nM.
With `O=C(NCC1(O)CCCC1)C1CC(Cc2c(-c3ccc(F)cc3)[nH]c3c(F)cc(F)cc23)C1` (stereo not given) the figure was > 1000 nM; with `C[C@@H](O)CNC(=O)C1CC(Cc2c(-c3ccc(F)cc3)[nH]c3c(F)cc(F)cc23)C1` (stereo not given in full), > 1000 nM.
With `CC(C)C[C@@H](CO)NC(=O)C1CC(Cc2c(-c3ccc(F)cc3)[nH]c3c(F)cc(F)cc23)C1` (stereo not given in full) the figure was > 1000 nM; with `CC1(CNC(=O)C2CC(Cc3c(-c4ccc(F)cc4)[nH]c4c(F)cc(F)cc34)C2)CCOC1` (stereo not given), > 1000 nM; with `CC1(NC(=O)C2CC(Cc3c(-c4ccc(F)cc4)[nH]c4c(F)cc(F)cc34)C2)CCNC1=O` (stereo not given), > 1000 nM.
For `O=C(N[C@@H](CO)C(F)(F)F)C1CC(Cc2c(-c3ccc(F)cc3)[nH]c3c(F)cc(F)cc23)C1` (stereo not given in full), the IC50 was > 1000 nM.
With `O=C(NCc1cnco1)C1CC(Cc2c(-c3ccc(F)cc3)[nH]c3c(F)cc(F)cc23)C1` (stereo not given), the 50% inhibitory concentration (IC50) was > 1000 nM.
As to `O=C(NCC1CCOC1)C1CC(Cc2c(-c3ccc(F)cc3)[nH]c3c(F)cc(F)cc23)C1` (stereo not given), the 50% inhibitory concentration (IC50) was > 1000 nM.
Turning to `CC1(NC(=O)C2CC(Cc3c(-c4ccc(F)cc4)[nH]c4c(F)cc(F)cc34)C2)CCOC1` (stereo not given), the half-maximal inhibitory concentration (IC50) was > 1000 nM.
As for `C[C@H](NC(=O)C1CC(Cc2c(-c3ccc(F)cc3)[nH]c3c(F)cc(F)cc23)C1)C(C)(C)O` (stereo not given in full), the IC50 was > 1000 nM.
For `O=C(NCC1CC(F)(F)C1)C1CC(Cc2c(-c3ccc(F)cc3)[nH]c3c(F)cc(F)cc23)C1` (stereo not given), the IC50 was > 1000 nM.
In the case of `CS(=O)(=O)CCNC(=O)C1CC(Cc2c(-c3ccc(F)cc3)[nH]c3c(F)cc(F)cc23)C1` (stereo not given), the IC50 is > 1000 nM.
For the molecule `O=C(NCC1CCCO1)C1CC(Cc2c(-c3ccc(F)cc3)[nH]c3c(F)cc(F)cc23)C1` (stereo not given), the IC50 was > 1000 nM.
Molecule `C[C@H](CO)NC(=O)O[C@H]1C[C@H](c2c(-c3ccc(F)cc3)[nH]c3c(F)cc(F)cc32)C1` gave an IC50 of 0.25 nM. This counts as sub-nanomolar.
In the case of `NC(=O)CNC(=O)O[C@H]1C[C@H](c2c(-c3ccc(F)cc3)[nH]c3c(F)cc(F)cc32)C1`, the IC50 is < 250 nM.
As to `Cn1cnc(CNC(=O)C2CC(Cc3c(-c4ccc(F)cc4)[nH]c4c(F)cc(F)cc34)C2)c1` (stereo not given), the IC50 is > 1000 nM.
Turning to `O=C(NCc1ccc[nH]c1=O)C1CC(Cc2c(-c3ccc(F)cc3)[nH]c3c(F)cc(F)cc23)C1` (stereo not given), the half-inhibitory concentration (IC50) is > 1000 nM.
`O=C(NC(CO)(CO)CO)O[C@H]1C[C@H](c2c(-c3ccc(F)cc3)[nH]c3c(F)cc(F)cc32)C1`: the IC50 is < 250 nM.
`O=C(N[C@@H]1CCNC1=O)O[C@H]1C[C@H](c2c(-c3ccc(F)cc3)[nH]c3c(F)cc(F)cc32)C1` yielded an IC50 of 0.25 nM.
`CC(C)(CO)NC(=O)O[C@H]1C[C@H](c2c(-c3ccc(F)cc3)[nH]c3c(F)cc(F)cc32)C1` returned a 50% inhibitory concentration (IC50) of 0.25 nM.
As to `CC(NC(=O)C1CC(Cc2c(-c3ccc(F)cc3)[nH]c3c(F)cc(F)cc23)C1)C1CCOC1` (stereo not given), the IC50 was > 1000 nM.
For `O=C(NC1(CCO)CC1)C1CC(Cc2c(-c3ccc(F)cc3)[nH]c3c(F)cc(F)cc23)C1` (stereo not given), the IC50 is > 1000 nM.
In the case of `COCC1(CNC(=O)C2CC(Cc3c(-c4ccc(F)cc4)[nH]c4c(F)cc(F)cc34)C2)CC1` (stereo not given), the IC50 is > 1000 nM.
Turning to `C[C@@H](CO)NC(=O)O[C@H]1C[C@H](c2c(-c3ccc(F)cc3)[nH]c3c(F)cc(F)cc32)C1`, half-maximal inhibition (IC50) required 0.25 nM.
In the case of `O=C(NCc1cocn1)C1CC(Cc2c(-c3ccc(F)cc3)[nH]c3c(F)cc(F)cc23)C1` (stereo not given), the IC50 is > 1000 nM.
As for `O=C(Nc1c[nH][nH]c1=O)C1CC(Cc2c(-c3ccc(F)cc3)[nH]c3c(F)cc(F)cc23)C1` (stereo not given), the IC50 was > 1000 nM.
The result for `CC1(O)CC(NC(=O)C2CC(Cc3c(-c4ccc(F)cc4)[nH]c4c(F)cc(F)cc34)C2)C1` (stereo not given) reads > 1000 nM; that for `O=C(NCc1ncc[nH]1)C1CC(Cc2c(-c3ccc(F)cc3)[nH]c3c(F)cc(F)cc23)C1` (stereo not given), > 1000 nM; that for `CC(C)(O)CNC(=O)C1CC(Cc2c(-c3ccc(F)cc3)[nH]c3c(F)cc(F)cc23)C1` (stereo not given), > 1000 nM.
In the case of `O=C(NCC1(CO)CC1)C1CC(Cc2c(-c3ccc(F)cc3)[nH]c3c(F)cc(F)cc23)C1` (stereo not given), the IC50 was > 1000 nM.
`O=C(NCc1cnn(CC(F)(F)F)c1)C1CC(Cc2c(-c3ccc(F)cc3)[nH]c3c(F)cc(F)cc23)C1` (stereo not given): the IC50 was > 1000 nM.
With `O=C(NCC1CCOCC1)C1CC(Cc2c(-c3ccc(F)cc3)[nH]c3c(F)cc(F)cc23)C1` (stereo not given), the IC50 is > 1000 nM.
As to `Cn1ccnc1CNC(=O)C1CC(Cc2c(-c3ccc(F)cc3)[nH]c3c(F)cc(F)cc23)C1` (stereo not given), the IC50 was > 1000 nM.
With `Cn1cncc1CNC(=O)C1CC(Cc2c(-c3ccc(F)cc3)[nH]c3c(F)cc(F)cc23)C1` (stereo not given), the IC50 is > 1000 nM.
As to `O=C(NCc1ccc(=O)[nH]c1)C1CC(Cc2c(-c3ccc(F)cc3)[nH]c3c(F)cc(F)cc23)C1` (stereo not given), the IC50 is > 1000 nM.
